Measurements published in patent US20260306639A1, “DEGRADER FOR DECOMPOSING CMET PROTEIN, AND PHARMACEUTICAL COMPOSITION COMPRISING SAME” (INNOCURE THERAPEUTICS, INC., priority 2022, published 2026).
pIC50: −log10 of the molar value.

Columns and labels:
c-MET [1] = assay: c-MET protein degradation (Simple Western), Hs746T cells; type: cell-based, human; details: Hs746T gastric cancer cells, c-MET exon 14 skipping mutant; 24 hours
Method: (§1) In order to assess the resolution of the compound of the present invention for c-MET expressed in cells, cells were dispensed in a 12-well plate at a concentration of 2×10^5 cells/well, and then gastric cancer cell lines were treated with samples for 24 hours and lung cancer cell lines were treated for 48 hours. Cell lysates were collected using a scraper on ice, centrifuged at 4° C. 15,000 rpm for 30 min to obtain a protein-containing supernatant. Protein expression was then measured using the Simple Western Automated Western Blot System Abby instrument using 3 μg of protein for each sample. SDS and heat-induced denaturation proteins were separated by molecular weight, attached to capillary, reacted with anti-c-MET or anti-GAPDH antibodies, which are primary antibodies, and then reacted with HRP-conjugated secondary antibodies, and analyzed the protein expression signal with compass software. Protein expression was normalized based on the expression value of GAPDH, and protein development in each sample was measured as a percentage (%) based on 100% of samples treated with 0.1% DMSO carriers, and DC50 (concentration of a compound where 50% protein inhibition is achieved) was calculated from the change in protein expression amount due to compound treatment.

c-MET [2] = assay: c-MET protein degradation (Simple Western), SNU-638 cells; type: cell-based, human; details: SNU-638 gastric cancer cells, c-MET overexpressing; 24 hours
Method: as §1

c-MET [3] = assay: c-MET protein degradation (Simple Western), EBC-1 cells; type: cell-based, human; details: EBC-1 lung cancer cells, c-MET overexpressing; 48 hours
Method: as §1

c-MET [4] = assay: c-MET protein degradation (Simple Western), MKN-45 cells; type: cell-based, human; details: MKN-45 gastric cancer cells, c-MET overexpressing; 24 hours
In short: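 Cells at 2×10^5 cells/well exposed to compound for 24 h (gastric lines) or 48 h (lung lines). Lysates (3 μg protein) probed for c-MET by capillary Simple Western, normalized to GAPDH and expressed as % of 0.1% DMSO control. DC50 is the concentration giving 50% protein reduction.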

MKN-45 = assay: cell viability / antiproliferative activity (WST-8), MKN-45 cells; type: cell-based; details: Homo sapiens; MKN-45 gastric cancer cells; 72 hours
Method: (§2) c-MET overexpressing human gastric cancer cell lines [MKN45] and [SNU638] were cultured in RPMI medium with 10% fetal bovine serum, penicillin (100 U/ml), and streptomycin (100 mg/ml), and c-MET exon 14 skipping mutant human gastric cancer cell lines [Hs746T] were cultured in DMEM media. The c-MET overexpressing human lung cancer cell line EBC-1 was cultured in MEM media with the addition of 10% fetal bovine serum, penicillin (100 U/ml), and streptomycin (100 mg/ml). […] The compound synthesized in accordance with the present invention was prepared with a raw material solution of 10 mM dissolved in DMSO (dimethyl sulfoxide), and was sequentially diluted and processed.
(§3) In order to observe the inhibitory activity on cell growth, cells were dispensed in a 96-well plate at a concentration of 5,000 cells/well, and then treated with the compound prepared at various concentrations for 72 hours. The viability of the cells was calculated using GraphicPad Prism 8.0 software by adding 10 ml per well of WST-8 (water soluble tetrazolium salt) sample, which reacts with dehydrogenase present in the electron transport system of mitochondria to produce formazon, incubated for 2 hours, and measured absorbance at 450 nm.

SNU-638 = assay: cell viability / antiproliferative activity (WST-8), SNU-638 cells; type: cell-based, human; details: Homo sapiens; SNU-638 gastric cancer cells; 72 hours
Method: as §2, §3

EBC-1 = assay: cell viability / antiproliferative activity (WST-8), EBC-1 cells; type: cell-based, human; details: Homo sapiens; EBC-1 lung cancer cells; 72 hours
Method: as §2, §3

SMILES	DC50 (c-MET [1]) [nM]	DC50 (c-MET [2]) [nM]	DC50 (c-MET [3]) [nM]	DC50 (c-MET [4]) [nM]	pIC50 (MKN-45)	pIC50 (SNU-638)	pIC50 (EBC-1)
N#Cc1cccc(-c2ccc(=O)n(Cc3cccc(-c4ncc(N5CCN(CC6CCN(c7ccc(NC8CCC(=O)NC8=O)cc7F)CC6)CC5)cn4)c3)n2)c1 (centres unmarked) [ICT-0001402]	< 100	< 100	< 100	–	–	–	–
Cc1nn(C2CCC(=O)NC2=O)c(=O)c2ccc(N3CCN(c4ccc(NC(=O)CN5CCC(COc6cnc(-c7cccc(Cn8nc(-c9cccc(C#N)c9)ccc8=O)c7)nc6)CC5)cc4)CC3)cc12 (centres unmarked) [ICT-0001207]	< 100	< 100	< 100	< 100	–	–	–
Cc1nn(C2CCC(=O)NC2=O)c(=O)c2cc(N3CCN(CCC(=O)N4CCC(COc5cnc(-c6cccc(Cn7nc(-c8cccc(C#N)c8)ccc7=O)c6)nc5)CC4)CC3)ccc12 (centres unmarked) [ICT-0001215]	–	< 100	< 100	< 100	> 7.00	> 7.00	> 7.00
Cc1nn(C2CCC(=O)NC2=O)c(=O)c2ccc(N3CCN(CCN4CCC(COc5cnc(-c6cccc(Cn7nc(-c8cccc(C#N)c8)ccc7=O)c6)nc5)CC4)CC3)cc12 (centres unmarked) [ICT-0001277, 3-(1-{[3-(5-{[1-(2-{4-[2-(2,6-dioxopiperidin-3-yl)-4-methyl-1-oxo-1,2-dihydrophthalazine-6-yl]piperazine-1-yl}ethyl)piperidine-4-il]methoxy}pyrimidine-2-yl)phenyl]methyl}6-oxo-1,6-dihydropyridazine-3-yl)benzonitrile]	< 100	< 100	< 100	< 100	–	–	–
